Measurements published in ChEMBL document CHEMBL1201862, “PubChem BioAssay data set” (2004).
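A five-concentration, 48-hour dose response in 96-well plates underlies each endpoint, interpolated linearly between surrounding concentrations. GI50 is the concentration that inhibits growth by half.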 Calls of active or inactive are those of the source. No stated cut-off is given here; in the data, active = GI50 up to about 1.1 µM and inactive = higher.

Assays:
Test in all cases: inhibition of tumour cell growth, NCI panel, 48 h
[1] = test system: HT-29
[2] = test system: MCF7
[3] = test system: SK-OV-3
[4] = test system: LOX IMVI
[5] = test system: BT-549
[6] = test system: UACC-62
[7] = test system: K562
[8] = test system: UACC-257
[9] = test system: SF-295
[10] = test system: SW-620
[11] = test system: SR
[12] = test system: PC-3
[13] = test system: ACHN
[14] = test system: NCI-H460
[15] = test system: M14
[16] = test system: NCI-H226
[17] = test system: SN12C
[18] = test system: SK-MEL-5
[19] = test system: A498
[20] = test system: RPMI-8226

Measured: GI50

COc1ccc(C2=C(Cl)C(=O)N(c3ccc(OC)cc3OC)C(=O)C2(Cl)Cl)cc1
inactive: [1] 18.1 µM | [2] 21 µM | [3] 47.3 µM | [4] 14.7 µM | [5] 18.8 µM | [6] 14.5 µM | [7] 19.8 µM | [8] 17.8 µM | [9] 24.3 µM | [10] 14.8 µM | [11] 4.09 µM | [12] 13.2 µM | [13] 15.7 µM | [14] 45.2 µM | [15] 14.6 µM | [16] 11.9 µM | [18] 14.9 µM
active: [17] < 0.01 µM

O=C(/C=C/c1ccc(O)c(O)c1)OCc1ccccc1 [BENZYL CAFFEATE]
inactive: [1] 32.3 µM | [2] 7.8 µM | [3] 18.3 µM | [4] 15.5 µM | [6] 6.58 µM | [7] 9.84 µM | [8] 21.2 µM | [19] 20.5 µM | [9] 11.2 µM | [10] 17.4 µM | [11] 3.74 µM | [20] 10.6 µM | [12] 18 µM | [13] 11.8 µM | [14] 12.8 µM | [15] 11.1 µM | [16] 31.3 µM | [17] 11.6 µM | [18] 9.73 µM

COc1ccc(C[C@@H](CO)NC2=C(C#N)CCC2)cc1
inactive: [1] 33.4 µM | [2] 26.9 µM | [3] 49.1 µM | [4] 23.7 µM | [5] 30.4 µM | [6] 31.5 µM | [7] 33.4 µM | [8] 34.6 µM | [19] 31.9 µM | [9] 29.7 µM | [10] 49.2 µM | [20] 18.1 µM | [12] 32.3 µM | [13] 49.9 µM | [14] 64.7 µM | [15] 41.4 µM | [16] 48.3 µM | [17] > 100 µM | [18] 34.9 µM

Cc1ccc2nc(-n3c(/C=C/c4ccccc4O)nc4ccccc4c3=O)sc2c1
inactive: [1] > 100 µM | [2] > 100 µM | [3] > 100 µM | [4] > 100 µM | [5] > 100 µM | [6] > 100 µM | [7] > 100 µM | [8] > 100 µM | [19] > 100 µM | [9] > 100 µM | [10] > 100 µM | [20] 76.4 µM | [12] > 100 µM | [13] > 100 µM | [14] > 100 µM | [15] > 100 µM | [16] > 100 µM | [18] > 100 µM

O=C1OCC(CN2CCC(n3c(=O)[nH]c4ccccc43)CC2)=C1c1ccccc1
inactive: [1] 19.7 µM | [2] 28.2 µM | [3] 37.2 µM | [4] 21.4 µM | [6] 12.6 µM | [7] 14.9 µM | [8] 23.4 µM | [19] 23.5 µM | [9] 26.4 µM | [10] 34.9 µM | [11] 30.2 µM | [20] 28.8 µM | [12] 19 µM | [13] 29.4 µM | [14] 6.78 µM | [15] 18.3 µM | [16] 25.4 µM | [17] 22 µM | [18] 15.3 µM

O=c1c(F)cn2c(=O)n1CCCCCCCn1c(=O)c(F)cn(c1=O)CCCCCCC2
inactive: [1] 50.4 µM | [2] > 100 µM | [3] > 100 µM | [4] > 100 µM | [6] 60.5 µM | [7] > 100 µM | [8] 36.4 µM | [19] 32 µM | [9] > 100 µM | [10] > 100 µM | [11] 39.4 µM | [20] > 100 µM | [12] > 100 µM | [13] > 100 µM | [14] > 100 µM | [15] 36.1 µM | [16] 54.5 µM | [17] > 100 µM | [18] 39.9 µM

CC1C(=NO)C(C)C(c2ccccc2)N(N=O)C1c1ccccc1 (stereo unspecified)
inactive: [1] 17.4 µM | [2] 37.9 µM | [3] 4.72 µM | [4] 15.9 µM | [5] 22.9 µM | [6] 13.5 µM | [7] 32.7 µM | [8] 23.4 µM | [9] 13.8 µM | [10] 21.8 µM | [11] 15.5 µM | [12] 25.4 µM | [13] 20.2 µM | [14] 16 µM | [15] 16 µM | [16] 24.7 µM | [17] 15.5 µM | [18] 18.9 µM

COc1ccc(N[C@H](C[S+]([O-])c2ccc(C)cc2)C(F)(F)F)cc1 (stereo partly specified)
inactive: [1] > 100 µM | [2] > 100 µM | [3] > 100 µM | [4] > 100 µM | [5] > 100 µM | [6] > 100 µM | [7] > 100 µM | [8] > 100 µM | [9] > 100 µM | [10] > 100 µM | [11] > 100 µM | [12] > 100 µM | [13] > 100 µM | [14] > 100 µM | [15] > 100 µM | [16] > 100 µM | [17] > 100 µM | [18] > 100 µM

CC(=O)N(CCc1ccccc1)C(C#N)c1ccc(OCCCCCCCCCCOc2ccc(C(C#N)N(CCc3ccccc3)C(C)=O)cc2)cc1 (stereo unspecified)
inactive: [1] > 100 µM | [2] > 100 µM | [3] 22.9 µM | [4] > 100 µM | [5] 33 µM | [6] 62.1 µM | [7] > 100 µM | [8] > 100 µM | [19] 31.3 µM | [9] 12.4 µM | [10] > 100 µM | [12] 63.4 µM | [13] 66.4 µM | [14] 94.8 µM | [15] > 100 µM | [16] 22 µM | [17] > 100 µM | [18] > 100 µM

NC(=O)N/N=C(\Cc1cc(=O)oc2cc(O)ccc12)C(=O)Nc1ccccc1C(N)=O
inactive: [1] > 100 µM | [2] > 100 µM | [3] > 100 µM | [4] > 100 µM | [5] > 100 µM | [6] > 100 µM | [8] > 100 µM | [9] > 100 µM | [10] > 100 µM | [12] > 100 µM | [13] > 100 µM | [14] > 100 µM | [15] > 100 µM | [16] > 100 µM | [17] > 100 µM | [18] > 100 µM

COc1ccc2c(c1)CCN=C2c1ccccc1CCCCl
inactive: [1] 13.6 µM | [2] 23.1 µM | [3] 31.5 µM | [5] 38.5 µM | [6] 36.1 µM | [7] 5.62 µM | [8] 23.7 µM | [19] 49.1 µM | [9] 20.5 µM | [10] > 100 µM | [20] 1.84 µM | [12] 17 µM | [13] 24.3 µM | [14] 13.6 µM | [15] 29.3 µM | [16] 15.7 µM | [17] 6.93 µM | [18] 4.99 µM

CN(CCNC(=O)c1nn(-c2ccccc2)c2c1ccc1ccccc12)CCNC(=O)c1nn(-c2ccccc2)c2c1ccc1ccccc12
active: [20] 0.202 µM
inactive: [1] 2.94 µM | [2] 1.98 µM | [3] 2.09 µM | [4] 1.77 µM | [5] 10.2 µM | [6] 1.77 µM | [8] 1.71 µM | [19] 2 µM | [9] 1.61 µM | [10] 2.17 µM | [12] 2.13 µM | [13] 2.11 µM | [14] 1.41 µM | [15] 1.78 µM | [16] 2.29 µM | [17] 1.88 µM | [18] 1.64 µM

c1ccc([P+](CCNCCNCC[P+](c2ccccc2)(c2ccccc2)c2ccccc2)(c2ccccc2)c2ccccc2)cc1
inactive: [1] > 100 µM | [2] > 100 µM | [3] > 100 µM | [5] > 100 µM | [6] > 100 µM | [8] > 100 µM | [19] > 100 µM | [9] > 100 µM | [10] > 100 µM | [20] > 100 µM | [13] > 100 µM | [14] > 100 µM | [15] > 100 µM | [16] > 100 µM | [17] > 100 µM | [18] > 100 µM

COc1c2c(cc3oc(=O)ccc13)OC(C)(C)C=C2 [XANTHOXYLETIN]
inactive: [1] 35.8 µM | [2] 25.4 µM | [3] 40.5 µM | [4] 21.8 µM | [5] 25.6 µM | [6] 22.6 µM | [7] 35.2 µM | [8] 31.7 µM | [9] 34.1 µM | [10] 26.1 µM | [11] 11.5 µM | [20] 24.5 µM | [13] 27.9 µM | [14] 24.2 µM | [15] 25.1 µM | [16] 41.1 µM | [17] 29 µM | [18] 21.8 µM

Clc1ccc(Cl)c(/N=N/c2cc3c4c(c2)CCCN4CCC3)c1
inactive: [1] > 10 µM | [2] > 10 µM | [3] > 10 µM | [4] > 10 µM | [6] > 10 µM | [7] > 10 µM | [8] > 10 µM | [19] > 10 µM | [9] > 10 µM | [10] > 10 µM | [11] > 10 µM | [20] > 10 µM | [12] > 10 µM | [13] > 10 µM | [14] > 10 µM | [15] > 10 µM | [16] > 10 µM | [17] > 10 µM | [18] > 10 µM
